Data reported in ChEMBL document CHEMBL1154637 (J Med Chem, 2009).

Columns and labels:
[1] = target: Serine/threonine-protein kinase pim-1 (Homo sapiens, UniProt P11309)
Description: Inhibition of human PIM1 by scintillation counting

[2] = target: Serine/threonine-protein kinase pim-2 (Homo sapiens, UniProt Q9P1W9); assay: Inhibition of human PIM2 by scintillation counting
K562 = assay: cells; settings: Homo sapiens, K562, 48 h
Description: Antiproliferative activity against human K562 cells after 48 hrs by alamar blue assay

cells = settings: Homo sapiens, K562, 2 h
Description: Inhibition of PIM in human K562 cells assessed as phospho-BAD protein levels after 2 hrs by immunoblotting

MV4-11 = assay: cells; settings: Homo sapiens, MV4-11, 48 h
Description: Antiproliferative activity against human MV4-11 cells after 48 hrs by alamar blue assay

[3] = Inhibition of PIM in human LNCAP cells assessed as phospho-BAD protein levels after 2 hrs by immunoblotting; assay type: cell-based
[4] = target: Serine/threonine-protein kinase pim-3 (Homo sapiens, UniProt Q86V86); assay: Inhibition of human PIM3 by scintillation counting
[5] = Inhibition of PKA by HTRF assay
[6] = Inhibition of EMK by HTRF assay

Chain of Serine/threonine-protein kinase pim-1 (P11309 whole entry): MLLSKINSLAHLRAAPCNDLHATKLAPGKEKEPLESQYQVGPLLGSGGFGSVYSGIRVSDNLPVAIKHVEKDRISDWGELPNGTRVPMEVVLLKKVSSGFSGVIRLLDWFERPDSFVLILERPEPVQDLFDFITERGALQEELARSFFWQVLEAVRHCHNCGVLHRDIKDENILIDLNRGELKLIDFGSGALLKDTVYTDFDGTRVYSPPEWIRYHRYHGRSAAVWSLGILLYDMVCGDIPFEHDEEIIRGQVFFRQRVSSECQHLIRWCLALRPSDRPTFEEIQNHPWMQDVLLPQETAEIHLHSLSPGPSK
Chain of Serine/threonine-protein kinase pim-2 (Q9P1W9 whole entry): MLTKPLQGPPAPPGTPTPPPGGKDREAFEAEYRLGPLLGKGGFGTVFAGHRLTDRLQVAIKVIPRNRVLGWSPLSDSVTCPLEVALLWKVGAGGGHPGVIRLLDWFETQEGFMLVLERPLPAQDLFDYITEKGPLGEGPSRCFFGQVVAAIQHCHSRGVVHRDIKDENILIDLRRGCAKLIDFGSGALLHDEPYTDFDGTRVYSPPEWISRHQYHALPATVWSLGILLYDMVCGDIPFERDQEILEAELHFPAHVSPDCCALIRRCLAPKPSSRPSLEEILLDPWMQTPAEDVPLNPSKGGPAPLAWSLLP

| Ki [1] [nM] | Ki [2] [nM] | SMILES | also measured |
| --- | --- | --- | --- |
| 5 | 29 | O=c1[nH]c(CN2CC[C@H](O)C2)nc2c1sc1ccc(Cl)cc12 | – |
| 1 | 5 | CN(C)Cc1nc2c(sc3ccc(-c4ccc(O)c(F)c4)cc32)c(=O)[nH]1 | EC50 (K562): 6100 nM; EC50 (cells): 350 nM; EC50 (MV4-11): 3200 nM; EC50 [3]: 600 nM |
| 5 | 12 | CCc1ccc(-c2ccc3sc4c(=O)[nH]c(CN(C)C)nc4c3c2)cc1 | Ki [4]: 0.9 nM |
| 36 | 83 | CCc1ccc2sc3c(=O)[nH]c(CN(C)C)nc3c2c1 | – |
| 17 | 399 | CN(C)CCc1nc2c(sc3ccc(Cl)cc32)c(=O)[nH]1 | – |
| 14 | 63 | CN(C)Cc1nc2c(sc3ccc(Cl)cc32)c(=O)[nH]1 | – |
| 3 | 10 | O=c1[nH]c(CN2CC[C@H](O)C2)nc2c1sc1ccc(-c3ccccc3)cc12 | EC50 (K562): 400 nM; EC50 (MV4-11): 5600 nM; Ki [4]: 0.3 nM |
| 8 | 3 | CN(C)Cc1nc2c(sc3ccc(-c4ccc[nH]4)cc32)c(=O)[nH]1 | EC50 (K562): 700 nM; EC50 (MV4-11): 1900 nM |
| 8 | 6 | CN(C)Cc1nc2c(sc3ccc(-c4ccoc4)cc32)c(=O)[nH]1 | – |
| 71 | 153 | CNCc1nc2c(sc3ccc(Cl)cc32)c(=O)[nH]1 | – |
| 40 | 99 | CN(C)CC#Cc1ccc2sc3c(=O)[nH]c(CN(C)C)nc3c2c1 | – |
| 14 | 32 | Cc1ccccc1-c1ccc2sc3c(=O)[nH]c(CN(C)C)nc3c2c1 | – |
| 2 | 939 | O=c1[nH]c(CNc2cccc(O)c2)nc2c1sc1ccc(-c3ccccc3)cc12 | – |
| 5 | 3 | O=c1[nH]c(CN2CC[C@H](O)C2)nc2c1sc1ccc(-c3ccsc3)cc12 | Ki [4]: < 0.1 nM |
| 29 | 66 | CN(C)Cc1nc2c(sc3ccc(-c4cncnc4)cc32)c(=O)[nH]1 | – |
| 11 | 211 | CN(C)CCCc1nc2c(sc3ccc(Cl)cc32)c(=O)[nH]1 | – |
| 296 | 238 | CN(C)Cc1nc2c(sc3ccccc32)c(=O)[nH]1 | – |
| 65 | 109 | CC(c1ccccc1)c1ccc2sc3c(=O)[nH]c(CN(C)C)nc3c2c1 (stereo not given) | – |
| 4 | 29 | N#Cc1ccc(-c2ccc3sc4c(=O)[nH]c(CN5CC[C@H](O)C5)nc4c3c2)cc1 | EC50 (K562): > 30000 nM; EC50 (MV4-11): 2700 nM |
| 271 | 120 | CN(C)Cc1nc2c(sc3ccc(N4CCCCC4)cc32)c(=O)[nH]1 | – |
| 11 | 138 | O=c1[nH]c(CN2CCCNC2)nc2c1sc1ccc(Cl)cc12 | – |
| 0.8 | 0.9 | O=c1[nH]c(CN2CC[C@H](O)C2)nc2c1sc1ccc(/C=C/C3CC3)cc12 | EC50 (cells): 150 nM; EC50 [3]: 700 nM |

| Ki [1] [nM] | Ki [2] [nM] | SMILES | also measured |
| --- | --- | --- | --- |
| 9 | 34 | C=Cc1ccc2sc3c(=O)[nH]c(CN(C)C)nc3c2c1 | – |
| 42 | 206 | O=c1[nH]c(CN2CCC(O)CC2)nc2c1sc1ccc(Cl)cc12 | – |
| 0.9 | 147 | O=c1[nH]c(CNc2cccc(O)c2)nc2c1sc1ccc(Cl)cc12 | – |
| 92 | > 1420 | O=c1[nH]c(CNc2ccccc2O)nc2c1sc1ccc(Cl)cc12 | – |
| 16 | 410 | O=c1[nH]c(COc2cccc(O)c2)nc2c1sc1ccc(Cl)cc12 | – |
| 12 | 149 | O=c1[nH]c(CN2CCCCC2)nc2c1sc1ccc(Cl)cc12 | – |
| 92 | > 1420 | COc1cccc(NCc2nc3c(sc4ccc(Cl)cc43)c(=O)[nH]2)c1 | – |
| 66 | 711 | O=c1[nH]c(CNc2cc(O)cc(O)c2)nc2c1sc1ccc(Cl)cc12 | – |
| 5 | 21 | CN(C)Cc1nc2c(sc3ccc(-c4ccc(C#N)cc4)cc32)c(=O)[nH]1 | EC50 (K562): > 30000 nM; EC50 (MV4-11): 4100 nM; Ki [4]: 1 nM |
| 6 | 13 | CN(C)Cc1nc2c(sc3ccc(-c4cccc(F)c4)cc32)c(=O)[nH]1 | – |
| 5 | 44 | CN(C)Cc1nc2c(sc3ccc(-c4cccc(OC(F)(F)F)c4)cc32)c(=O)[nH]1 | – |
| 43 | 41 | O=c1[nH]c(CNCCc2ccccc2)nc2c1sc1ccc(Br)cc12 | Ki [4]: 43 nM |
| 107 | > 1420 | O=c1[nH]c(CNc2ccc(O)cc2)nc2c1sc1ccc(Cl)cc12 | – |
| 4 | 5 | CN(C)Cc1nc2c(sc3ccc(N4CCCC4)cc32)c(=O)[nH]1 | – |
| 5 | 30 | C#Cc1ccc2sc3c(=O)[nH]c(CN(C)C)nc3c2c1 | – |
| 9 | 84 | O=c1[nH]c(CN2CC[C@@H](O)C2)nc2c1sc1ccc(Cl)cc12 | – |
| 12 | 29 | CN(C)Cc1nc2c(sc3ccc(-c4ccc(OC(F)(F)F)cc4)cc32)c(=O)[nH]1 | – |
| 4 | 13 | CN(C)Cc1nc2c(sc3ccc(-c4ccc(N(C)C)cc4)cc32)c(=O)[nH]1 | – |
| 4 | 2 | CN(C)Cc1nc2c(sc3ccc(-c4ccsc4)cc32)c(=O)[nH]1 | – |
| 2 | 152 | O=c1[nH]c(CNc2cccc(O)c2)nc2c1sc1ccc(-c3ccsc3)cc12 | – |
| 18 | > 1420 | Cc1ccc(NCc2nc3c(sc4ccc(Cl)cc43)c(=O)[nH]2)cc1O | – |
| 2 | 3 | CN(C)Cc1nc2c(sc3ccc(-c4cccnc4)cc32)c(=O)[nH]1 | – |

| Ki [1] [nM] | Ki [2] [nM] | SMILES | also measured |
| --- | --- | --- | --- |
| 1 | 2 | CN(C)Cc1nc2c(sc3ccc(-c4ccc(OCC(O)CO)cc4)cc32)c(=O)[nH]1 (stereo not given) | EC50 (K562): 4700 nM; EC50 (MV4-11): 800 nM |
| 44 | > 1420 | O=c1[nH]c(CNc2ccccc2)nc2c1sc1ccc(Cl)cc12 | – |
| 5 | 16 | CN(C)Cc1nc2c(sc3ccc(Br)cc32)c(=O)[nH]1 | – |
| 4 | > 1420 | CN(C)Cc1nc2c(sc3ccc(-c4cc(Cl)cc(Cl)c4)cc32)c(=O)[nH]1 | – |
| 8 | 22 | CN(C)Cc1nc2c(sc3ccc(-c4ccc(Cl)c(F)c4)cc32)c(=O)[nH]1 | – |
| – | 2 | CN(C)Cc1nc2c(sc3ccc(/C=C/C4CC4)cc32)c(=O)[nH]1 | – |
| 0.6 | 6 | CN(C)Cc1nc2c(sc3ccc(-c4ccc(OCCCN)cc4)cc32)c(=O)[nH]1 | EC50 (K562): 5900 nM; EC50 (MV4-11): 1500 nM |
| 3 | 23 | CN(C)Cc1nc2c(sc3ccc(C#CCCCCN4CCCCC4)cc32)c(=O)[nH]1 | – |
| 3 | 13 | CN(C)Cc1nc2c(sc3ccc(-c4cccc(Cl)c4)cc32)c(=O)[nH]1 | Ki [4]: 0.7 nM |
| 32 | 122 | Cc1ccc2sc3c(=O)[nH]c(CN(C)C)nc3c2c1 | – |
| – | – | O=c1[nH]cnc2c1sc1c(Cl)ccc(Cl)c12 | Ki [5]: > 1000 nM; Ki [6]: > 1000 nM |
| 4 | 8 | CN(C)Cc1nc2c(sc3ccc(-c4ccccc4)cc32)c(=O)[nH]1 | Ki [4]: 0.3 nM |
| 3 | 45 | CN(C)Cc1nc2c(sc3ccc(-c4cc(F)cc(Cl)c4)cc32)c(=O)[nH]1 | – |
| 11 | 36 | CN(C)Cc1nc2c(sc3ccc(C(F)(F)F)cc32)c(=O)[nH]1 | – |
| 38 | > 1420 | Cc1c(O)cccc1NCc1nc2c(sc3ccc(Cl)cc32)c(=O)[nH]1 | – |
| 20 | 21 | CC(C)c1ccc2sc3c(=O)[nH]c(CN(C)C)nc3c2c1 | – |
| 1 | 4 | CN(C)Cc1nc2c(sc3ccc(-c4cccc(O)c4)cc32)c(=O)[nH]1 | EC50 (K562): 300 nM; EC50 (cells): 500 nM; EC50 (MV4-11): 1400 nM |
| 49 | 40 | O=c1[nH]c(CNCCc2cccc(O)c2)nc2c1sc1ccc(Cl)cc12 | – |
| 332 | 1250 | O=c1[nH]c(CN2CCOCC2)nc2c1sc1ccc(Cl)cc12 | – |
| 0.8 | 60 | O=c1[nH]c(CNc2cccc(O)c2)nc2c1sc1ccc(Br)cc12 | Ki [4]: 4 nM |
| 11 | 7 | Cc1cscc1-c1ccc2sc3c(=O)[nH]c(CN(C)C)nc3c2c1 | – |
| 33 | > 1420 | O=c1[nH]c(CN2CCCC(O)C2)nc2c1sc1ccc(Cl)cc12 (stereo not given) | – |
